Entries after “also recorded” stand apart in the source; their conditions may differ.

For test [1], the system named is vessels larger than 20 um in diameter. The test can be described thus: Vascular micro-CT of vessels larger than 20 um in diameter. The format is in vivo, mice. As to conditions: vascular uCT, TID PTH. The text has this:
FIGS. 3A-3H are graphs (FIGS. 3A-3G) and pictures (FIG. 3H) showing PTH increases bone marrow microvascularity. FIG. 3A is a graph showing histomorphometric analysis of bone marrow microvascular structures per hindlimb section (femur and tibia). FIG. 3B is a graph showing histomorphometric analysis of bone marrow vascular area, measured within a region of interest in the tibial metaphysis. FIG. 3C is a graph showing frequency of CD31+ Sca1+ bone marrow endothelial cells following TID PTH treatment. FIG. 3D is a graph showing frequency of CD31+ Sca1+ bone marrow endothelial cells isolated from CollcaPTH1R-expressing mice (TG) or wildtype littermates (WT). […]
Methods of administration and analysis of the effects of PTH either alone or in combination are described above. To determine whether bone anabolic, HSPC-expanding regimens of PTH stimulation alter the vascular niche, mice were first treated intensively with PTH and the hindlimb BM vasculature was analyzed. PTH increased BM vascular structures per hindlimb section (femur and tibia) by histomorphometric analysis (FIG. 9A) as well as the area occupied by vasculature measured within the tibial metaphysis (FIG. 9B). To clarify whether intensive PTH treatment was vasodilatory to existing vessels or increasing de novo endothelial structures, BMCs of PTH-treated mice were analyzed phenotypically by flow cytometry (FIG. 9D). […]

Test [2] has as its system primary mouse osteoblastic cells. The test can be described thus: PTH stimulation of primary mouse osteoblastic cells from bone marrow stroma. The format is cell-based. As to the method:
(§1) To determine if PTH increases osteoblast-derived VEGF-A, in vitro PTH stimulation experiments were performed on two osteoblastic cell lines. […] Osteoblastic differentiation was observed through maturational changes in gene expression of Collagen1, Osteocalcin and Pth1r and the ability to form mineralized bone nodules. […] To test whether PTH could directly induce VEGF-A in primary mouse osteoblastic cells as it could in osteoblastic cell lines, mouse bone marrow stroma was harvested and cultured in osteoblastic maturation media prior to stimulation with PTH at specific points throughout differentiation. Again, osteoblastic differentiation was monitored through analysis of Collagen1, Osteocalcin and Pth1r expression as well as by the formation of mineralizing bone nodules.

Test [3] has as its system osteolineage cells. The test can be described thus: Angiogenic signals (FGF2, Vegfa) in marrow and osteolineage cells of treated mice. Type of test: in vivo. How it is done:
FGF2 is another angiogenic signal within the BM. In contrast to the effects of VEGF-A on endothelial permeability and migration, FGF2 enforces vascular stability. To determine whether osteoblastic activation by PTH can remodel the BM vasculature through the action of multiple angiogenic signals or VEGF-A alone, FGF2 changes in the marrow of PTH-stimulated mice were analyzed. Indeed, increased endosteal-associated FGF2 in hindlimb BM of mice treated with TID PTH, with a localization pattern similar to that of VEGF was observed. Moreover, FGF2 expression levels were increased within osteolineage cells isolated from TID PTH mice (FIG. 10E).
Immunoreactive VEGF-A and FGF2 were both very high along endosteal surfaces of the hindlimb BM cavity following PTH as compared to control treatment.

The test system of test [4] is VEGF-A. The test can be described thus: Immunohistochemical staining for VEGF-A in hindlimb BM. Type of test: in vivo. The note with it: PTH-treated mice vs vehicle, endosteal/bone surfaces. An excerpt: Osteoblasts (OBs) and the bone marrow (BM) vasculature constitute hematopoietic stem and progenitor cell (HSPC) niches. OB-activation by Parathyroid Hormone (PTH) expands HSPCs through the BM microenvironment. Activation of osteoblasts through systemic PTH treatment or expression of a constitutively active PTH1 receptor (PTH1R) increases trabecular bone and expands HSPCs in the bone marrow. To test if the vasculature is modulated by PTH, it was first assessed whether PTH expands BM endothelial structures. In a murine model of HSPC-expanding PTH treatment, PTH increased microvessels and vascular area in hindlimb histology (FIG. 3A, 3B and 3E-3H). […] To determine if PTH expands BM vasculature by increasing proangiogenic signals, VEGF-A was analyzed in PTH-stimulated BM. […] To establish whether PTH directly stimulates osteoblastic Vegfa expression, mouse calvarial MC3T3 cells were treated with PTH at various stages of osteoblastic maturation. […] The magnitude of induction increased throughout osteoblastic differentiation. […] Bevacizumab blunted PTH-mediated expansion of phenotypic BM ECs when bevacizumab and PTH treatment was compared to PTH alone.
To determine whether the PTH-dependent increase in BM microvascularity is due to local induction of proangiogenic signals, immunostaining for candidate angiogenic factors already implicated in marrow endothelial signaling was performed.

Test [5] has as its system hematopoietic stem and progenitor cells (HSPCs). The test can be described thus: Flow cytometric analysis of bone marrow HSPCs from treated mice. Type of test: in vivo, C57B1/6 mice. As to conditions: systemic PTH treatment. How it is done:
All drugs were administered by intraperitoneal injection. Following 10 days of treatment, mice were sacrificed (on the morning of the eleventh day) and samples were harvested. Hindlimb bone marrow samples were used to generate the data for FIG. 8A as well as for the competitive transplantation of whole bone marrow. Hindlimb bone marrow was harvested by crushing the right hindlimb of each mouse individually using a sterile mortar and pestle in 2.5 mL phosphate buffered saline, filtered through a 40 um cell strainer and placed on ice. For flow cytometric analysis, fresh, filtered bone marrow cells were subjected to a red blood cell lysis procedure using ammonium chloride and then prepared for flow cytometry by staining with a panel of fluorescently-conjugated antibodies recognizing markers of hematopoietic stem and progenitor cells. Samples were then run on an LSR-II 12 color flow cytometer and data was analyzed using TreeStar's FlowJo software. Statistics between treatment groups were analyzed by student's T test. […]

For test [6], the system named is OBs. The test can be described thus: PTH stimulation of OBs in vitro. Type of test: cell-based.
The test system of test [7] is HSPCs. The test can be described thus: Competitive transplantation of whole BM into lethally irradiated recipient mice. Type of test: in vivo, C57B1/6 mice. As to conditions: primary recipients of treated donor BM.
Experimental: Competitive transplantation of these cells was performed using a 4:1 donor to competitor cell ratio where the competitor was a C57B1/6 wildtype CD45.2-expressing male mouse and the recipient mice (10 mice per experimental group) were also C57B1/6 wildtype CD45.2-expressing male mice (6-8 weeks of age) that had been conditioned with a split dose of 10 Gray total body irradiation. Cell cocktails (containing the 4:1 ratio donor to competitor whole bone marrow cells) were transplanted into recipients by retro-orbital injection. Recipient mice were placed on a diet containing sulfatrim prior to the transplant and for 1 month post transplantation. Peripheral blood samples were collected at 3 weeks post transplant by bleeding from the sub-mandibular venous plexus into EDTA-containing microtainer blood tubes. Blood was then separated in order to isolate an enriched sample of mononuclear cells using PBS and dextran separation. Mononuclear cells were subjected to red blood cell lysis and then prepared for flow cytometry using a panel of antibodies recognizing B, T and myeloid cells as well as CD45.1 and CD45.2. Samples were then run on an LSR-II 12 color flow cytometer and data was analyzed using TreeStar's FlowJo software. Statistics between treatment groups were analyzed by student's T test. […]
Test [8] relates to BM blood vessels and perivascular stromal cells. The test can be described thus: CD31 and αSMA immunostaining in the BM. Type of test: in vivo, mice. The note with it: PTH. How it is done: (§2) Methods of administration and analysis of the effects of PTH either alone or in combination are described above. To determine whether bone anabolic, HSPC-expanding regimens of PTH stimulation alter the vascular niche, mice were first treated intensively with PTH and the hindlimb BM vasculature was analyzed. PTH increased BM vascular structures per hindlimb section (femur and tibia) by histomorphometric analysis (FIG. 9A) as well as the area occupied by vasculature measured within the tibial metaphysis (FIG. 9B). To clarify whether intensive PTH treatment was vasodilatory to existing vessels or increasing de novo endothelial structures, BMCs of PTH-treated mice were analyzed phenotypically by flow cytometry (FIG. 9D). Intensive PTH treatment expanded populations of BM endothelial cells defined by this immunophenotyic signature (FIG. 9E). […] This expansion of small BM blood vessels was also observed in close association with both trabecular and cortical bone when CD31 immunostaining was examined in the BM (FIG. 9E). The PTH-induced increase in endothelial structures was accompanied by an increase in perivascular α smooth muscle actin (αSMA+) (FIG. 9F), indicating a concomitant increase in perivascular, HSPC supportive stromal cells.

The test system of test [9] is osteoblastic UMR106 cells. The test can be described thus: In vitro PTH stimulation of osteoblastic UMR106 cells. The format is cell-based. As to the method: as §1
For test [10], the system named is BM vasculature. The test can be described thus: Histomorphometric analysis of hindlimb bone marrow vasculature after PTH treatment. The note with it: PTH treatment vs vehicle. Type of test: in vivo, mice. An excerpt: Osteoblasts (OBs) and the bone marrow (BM) vasculature constitute hematopoietic stem and progenitor cell (HSPC) niches. OB-activation by Parathyroid Hormone (PTH) expands HSPCs through the BM microenvironment. Activation of osteoblasts through systemic PTH treatment or expression of a constitutively active PTH1 receptor (PTH1R) increases trabecular bone and expands HSPCs in the bone marrow. To test if the vasculature is modulated by PTH, it was first assessed whether PTH expands BM endothelial structures. In a murine model of HSPC-expanding PTH treatment, PTH increased microvessels and vascular area in hindlimb histology (FIG. 3A, 3B and 3E-3H). […] To determine if PTH expands BM vasculature by increasing proangiogenic signals, VEGF-A was analyzed in PTH-stimulated BM. […]
Methods of administration and analysis of the effects of PTH either alone or in combination are described above. To determine whether bone anabolic, HSPC-expanding regimens of PTH stimulation alter the vascular niche, mice were first treated intensively with PTH and the hindlimb BM vasculature was analyzed. PTH increased BM vascular structures per hindlimb section (femur and tibia) by histomorphometric analysis (FIG. 9A) as well as the area occupied by vasculature measured within the tibial metaphysis (FIG. 9B). […]

Test [11] deals with mouse calvarial MC3T3 cells. The test can be described thus: In vitro PTH stimulation of MC3T3 cells during osteoblastic differentiation. The format is cell-based. The text has this: Osteoblasts (OBs) and the bone marrow (BM) vasculature constitute hematopoietic stem and progenitor cell (HSPC) niches. OB-activation by Parathyroid Hormone (PTH) expands HSPCs through the BM microenvironment. Activation of osteoblasts through systemic PTH treatment or expression of a constitutively active PTH1 receptor (PTH1R) increases trabecular bone and expands HSPCs in the bone marrow. To test if the vasculature is modulated by PTH, it was first assessed whether PTH expands BM endothelial structures. In a murine model of HSPC-expanding PTH treatment, PTH increased microvessels and vascular area in hindlimb histology (FIG. 3A, 3B and 3E-3H). […] To determine if PTH expands BM vasculature by increasing proangiogenic signals, VEGF-A was analyzed in PTH-stimulated BM. […] To establish whether PTH directly stimulates osteoblastic Vegfa expression, mouse calvarial MC3T3 cells were treated with PTH at various stages of osteoblastic maturation. […] The magnitude of induction increased throughout osteoblastic differentiation. […]
To determine if PTH increases osteoblast-derived VEGF-A, in vitro PTH stimulation experiments were performed on two osteoblastic cell lines. […] Again, osteoblastic differentiation was monitored through analysis of Collagen1, Osteocalcin and Pth1r expression as well as by the formation of mineralizing bone nodules.

Test [12] relates to CD31+ Sca1+ BM endothelial cells. The test can be described thus: Flow cytometry of CD31+ Sca1+ bone marrow endothelial cells. The format is in vivo, mice. As to conditions: PTH treatment vs vehicle. As to the method:
All drugs were administered by intraperitoneal injection. Following 10 days of treatment, mice were sacrificed (on the morning of the eleventh day) and samples were harvested. Hindlimb bone marrow samples were used to generate the data for FIG. 8A as well as for the competitive transplantation of whole bone marrow. Hindlimb bone marrow was harvested by crushing the right hindlimb of each mouse individually using a sterile mortar and pestle in 2.5 mL phosphate buffered saline, filtered through a 40 um cell strainer and placed on ice. For flow cytometric analysis, fresh, filtered bone marrow cells were subjected to a red blood cell lysis procedure using ammonium chloride and then prepared for flow cytometry by staining with a panel of fluorescently-conjugated antibodies recognizing markers of hematopoietic stem and progenitor cells. Samples were then run on an LSR-II 12 color flow cytometer and data was analyzed using TreeStar's FlowJo software. Statistics between treatment groups were analyzed by student's T test.
as §2
(A flow cytometer gives signals particle by particle.)

The subject of test [13] is trabecular bone. The test can be described thus: Micro-CT analysis of trabecular bone. The format is in vivo, mice. As to conditions: systemic PTH treatment. As to the method:
The limbs were scanned on a Viva CT 40 (Scanco Medical, Bruttisellen, Switzerland) using a 55-kVp, 145-uA current and a 300-ms integration time with a resolution of 12.5 μm. Trabecular analysis was conducted on a 1.25-mm region 50 μm above the growth plate in the femur and a 625-μm 50 um below the growth plate in the tibia. Cortical analysis was conducted 4.375 mm above/below the growth plate of the femur/tibia for a distance of 375 μm.
Due to the dramatic induction of osteoblastic VEGF-A observed in the setting of PTH stimulation, the functional relevance of this signal in multiple aspects of BM microenvironmental activation was analyzed.

With Parathyroid hormone (1-34) [PTH], the “vessel frequency, density or volume” value in test [1] was “no increase”. Besides, the “soluble VEGF-A protein secreted into the culture media” value in [2] (PTH treatment) was “a significant effect of PTH treatment was not detected”. Besides, in test [2] (as early as four hours post PTH treatment of maturing osteoblastic cells), the “Vegfa mRNA levels” value is recorded as “increased”. For the same substance, the “endosteal-associated FGF2 in hindlimb BM” value in [3] (TID PTH) is listed as “increased”. In test [3] (cells isolated from TID PTH mice), the “FGF2 expression levels within osteolineage cells” value is listed as “increases”. Further, the “Vegfa expression in osteolineage bone-associated cells” value in test [3] (cells isolated from mice treated with PTH) was “increases”. Also, in test [4], the “VEGF-A protein staining in BM” value was “increased along bone surfaces; also recorded: strongly increased; also recorded: global increase”. Further, in test [5], the “HSPCs in the bone marrow” value is reported as “expands”. Besides, in test [6], the “FGF2 in OBs in vitro” value is given as “simultaneously increased” and the “expression of VEGF-A in OBs in vitro” value is “increased”. The multilineage hematopoietic reconstitution result in test [7] was “transiently increased”. Further, in test [8], the “perivascular α smooth muscle actin (αSMA+)” value is given as “increase”; the “small BM blood vessels (CD31 immunostaining) associated with trabecular and cortical bone” value is on record as “expansion”. In addition, the VEGF-A protein secretion result in test [9] (by six hours post PTH-stimulation) was “increase”. For the same substance, in test [9] (two hours post PTH stimulation, n=3, p=0.0055), the Vegfa expression is on record as 8.500±1.320 fold change above baseline. In test [10], the “BM microvessels / vascular structures per hindlimb section (femur and tibia)” value is “increased”; the “vascular area (tibial metaphysis)” value is “increased”. Moreover, the “secreted VEGF-A protein” value in test [11] was “increased; also recorded: robust”. In test [11] (throughout osteoblastic differentiation), the Vegfa expression result is given as “strongly induced; also recorded: induced”. Further, the “CD31+ Sca1+ BM endothelial cells” value in test [12] is listed as “increased; also recorded: expanded”. Besides, the trabecular bone entry in test [13] is “increases”.

(Values after patent publication US20150273055A1, “METHODS AND COMPOSITIONS FOR EXPANDING HEMATOPOIETIC STEM AND PROGENITOR CELLS” (UNIVERSITY OF ROCHESTER, priority 2012, published 2015).)
